In ChEMBL document CHEMBL5055660, “In vitro activity of N-phenyl-1,10-phenanthroline-2-amines against tachyzoites and bradyzoites of Toxoplasma gondii” (Bioorg Med Chem, 2021):
pEC50: −log10 of the molar value. Activity calls are given as the source filed them. The rule behind the calls is not given here.

Experiments:
Toxoplasma gondii [1] = experiment: Induction of stage conversion in Toxoplasma gondii ESG reporter strain at 1 uM; assay type: functional, organism-based
Toxoplasma gondii [2] = experiment: Anti-bradyzoite activity against Toxoplasma gondii ESG reporter strain infected in NHDF cells assessed as cell lysis measured after 21 days; assay type: functional, organism-based; conditions: time 21.0 day
Toxoplasma gondii [3] = experiment: Anti-bradyzoite activity against Toxoplasma gondii ESG reporter stain infected in NHDF cells assessed as viable cells recovery causing host cell lysis at 1 uM measured after 15 days by optical microscopic analysis; assay type: functional, organism-based; conditions: time 15.0 day
Toxoplasma gondii [4] = experiment: Anti-bradyzoite activity against Toxoplasma gondii ESG reporter stain infected in NHDF cells assessed as parasite proliferation at 10 uM measured after 30 days by optical microscopic analysis; assay type: functional, organism-based; conditions: time 30.0 day
Toxoplasma gondii [5] = experiment: (§1) Anti-tachyzoite activity against RFP-expressing Toxoplasma gondii RH Type 1 infected in NHDF cells assessed as inhibition of plaque formation at 10 uM incubated for 96 hrs followed by removal of medium containing compounds and subsequent addition of fresh medium without compounds and measured after 8 days by crystal violet staining based optical microscopic analysis; assay type: functional, organism-based
Toxoplasma gondii [6] = experiment: as §1, with “destruction” for “inhibition”, “host cells” for “plaque formation”, “1” for “10”; assay type: functional, organism-based
Toxoplasma gondii [7] = experiment: Induction of morphological changes in Toxoplasma gondii ESG reporter strain at 10 uM; assay type: functional, organism-based
Toxoplasma gondii [8] = experiment: Anti-bradyzoite activity against Toxoplasma gondii ESG reporter stain infected in NHDF cells assessed as parasitic infection at 1.25 uM measured after 60 days by optical microscopic analysis; assay type: functional, organism-based; conditions: time 60.0 day
Toxoplasma gondii [9] = experiment: Anti-tachyzoite activity against RFP-expressing Toxoplasma gondii RH Type 1 infected in NHDF cells assessed as inhibition of parasite proliferation measured after 96 hrs by fluorescence plate reader; assay type: functional; conditions: RH Type 1, NHDF, read-out: ED50 (the source's name)
[10] = Selectivity index, ratio of CC50 for cytotoxicity against NHDF cells to ED50 for Anti-tachyzoite activity against RFP-expressing Toxoplasma gondii RH Type 1 infected in NHDF cells; assay type: toxicity, cell-based; conditions: human; read-out: Selectivity Index
[11] = Cytotoxicity against NHDF cells assessed as reduction in cell viability measured after 96 hrs by MTS assay; assay type: cell-based; conditions: human
Toxoplasma gondii [12] = experiment: Anti-bradyzoite activity against Toxoplasma gondii ESG reporter strain infected in NHDF cells assessed as increase in BAG-positive vacuole number at 1.25 uM pretreated with PYR for 3 days followed by compound treatment and further incubated for 4 days; assay type: functional, organism-based; conditions: time 4.0 day
Toxoplasma gondii [13] = experiment: as §1, with “as” for “as inhibition of”, “0.625” for “10”; assay type: functional, organism-based
Toxoplasma gondii [14] = experiment: as §1, with “destruction” for “inhibition”, “host cells” for “plaque formation”, “1.25” for “10”; assay type: functional, organism-based
Toxoplasma gondii [15] = experiment: Anti-tachyzoite activity against RFP-expressing Toxoplasma gondii RH Type 1 infected in NHDF cells assessed as inhibition of parasite proliferation measured after 72 hrs by fluorescence plate reader; assay type: functional; conditions: RH Type 1, NHDF, read-out: ED50 (the source's name)
Toxoplasma gondii [16] = experiment: as §1, with “1.25” for “10”; assay type: functional, organism-based
Toxoplasma gondii [17] = experiment: Anti-bradyzoite activity against Toxoplasma gondii ESG reporter stain infected in NHDF cells assessed as viable cells recovery causing host cell lysis at 0.625 uM measured after 15 days by optical microscopic analysis; assay type: functional, organism-based; conditions: time 15.0 day
Toxoplasma gondii [18] = experiment: Induction of mitochondria swelling in RFP-expressing Toxoplasma gondii RH Type 1 at 156 nM after 72 hrs by TEM analysis; assay type: functional, organism-based; conditions: NHDF
Toxoplasma gondii [19] = experiment: Induction of cytoplasmic vacuolization in RFP-expressing Toxoplasma gondii RH Type 1 at 156 nM after 72 hrs by TEM analysis; assay type: functional, organism-based
Toxoplasma gondii [20] = experiment: Anti-bradyzoite activity against Toxoplasma gondii ESG reporter stain infected in NHDF cells assessed as parasitic infection at 0.625 uM measured after 60 days by optical microscopic analysis; assay type: functional, organism-based; conditions: time 60.0 day
Toxoplasma gondii [21] = experiment: as §1, with “as” for “as inhibition of”, “0.156” for “10”; assay type: functional, organism-based
Toxoplasma gondii [22] = experiment: as §1, with “0.312” for “10”; assay type: functional, organism-based
Toxoplasma gondii [23] = experiment: Anti-bradyzoite activity against Toxoplasma gondii ESG reporter strain infected in NHDF cells assessed as morphological alteration at 0.625 uM measured after 5 days under alkaline condition by TEM analysis; assay type: functional, organism-based; conditions: time 5.0 day
Toxoplasma gondii [24] = experiment: Induction of vacuole formation in Toxoplasma gondii ESG reporter strain infected in NHDF cells assessed as increase in BAG positive vacuole number pretreated with PYR for 3 days followed by compound treatment and further incubated for 4 days; assay type: functional, organism-based; conditions: time 4.0 day
Toxoplasma gondii [25] = experiment: Anti-bradyzoite activity against Toxoplasma gondii ESG reporter stain infected in NHDF cells assessed as parasite proliferation at 0.325 uM measured after 30 days by optical microscopic analysis; assay type: functional, organism-based; conditions: time 30.0 day
Toxoplasma gondii [26] = experiment: Anti-bradyzoite activity against Toxoplasma gondii ESG reporter strain infected in NHDF cells assessed as increase in BAG-positive vacuole number at 0.625 uM pretreated with PYR for 3 days followed by compound treatment and further incubated for 4 days; assay type: functional, organism-based; conditions: time 4.0 day
Toxoplasma gondii [27] = experiment: Induction of nuclear fragmentation in RFP-expressing Toxoplasma gondii RH Type 1 at 156 nM after 72 hrs by TEM analysis; assay type: functional, organism-based; conditions: NHDF
Toxoplasma gondii [28] = experiment: (§2) Anti-tachyzoite activity against RFP-expressing Toxoplasma gondii RH Type 1 infected in NHDF cells assessed as inhibition of plaque formation at 0.312 uM when host cells pretreated for 3 days followed by infection and removal of medium containing compounds and subsequent addition of fresh medium without compounds and measured after 7 days by crystal violet staining based optical microscopic analysis; assay type: functional, organism-based; conditions: time 3.0 day
Toxoplasma gondii [29] = experiment: Induction of cell death in RFP-expressing Toxoplasma gondii RH Type 1 assessed as DNA fragmentation at 156 nM after 72 hrs by immunoblotting analysis; assay type: functional, organism-based
Toxoplasma gondii [30] = experiment: Anti-bradyzoite activity against Toxoplasma gondii ESG reporter strain infected in NHDF cells assessed as induction of cyst formation measured after 5 days under alkaline condition by TEM analysis; assay type: functional, organism-based; conditions: time 5.0 day
Toxoplasma gondii [31] = experiment: as §1, with “viable cells recovery causing host cell lysis” for “inhibition of plaque formation”, “5” for “10”, “analysis relative to control” for “analysis”; assay type: functional
Toxoplasma gondii [32] = experiment: as §1, with “destruction” for “inhibition”, “host cells” for “plaque formation”, “2.5” for “10”; assay type: functional, organism-based
Toxoplasma gondii [33] = experiment: as §1, with “destruction” for “inhibition”, “host cells” for “plaque formation”, “5” for “10”; assay type: functional, organism-based
Toxoplasma gondii [34] = experiment: as §2, with “1.25” for “0.312”; assay type: functional, organism-based; conditions: time 3.0 day
Toxoplasma gondii [35] = experiment: as §1, with “0.625” for “10”; assay type: functional, organism-based
Toxoplasma gondii [36] = experiment: Anti-bradyzoite activity against Toxoplasma gondii ESG reporter strain infected in NHDF cells assessed as morphological alteration at 1.25 uM measured after 5 days under alkaline condition by TEM analysis; assay type: functional, organism-based; conditions: time 5.0 day
Toxoplasma gondii [37] = experiment: Anti-bradyzoite activity against Toxoplasma gondii ESG reporter strain infected in NHDF cells assessed as cell lysis at 2 uM measured after 21 days; assay type: functional, organism-based; conditions: time 21.0 day
Toxoplasma gondii [38] = experiment: Anti-bradyzoite activity against Toxoplasma gondii ESG reporter stain infected in NHDF cells assessed as parasite proliferation at 4 uM measured after 30 days by optical microscopic analysis; assay type: functional, organism-based; conditions: time 30.0 day
Toxoplasma gondii [39] = experiment: as §1, with “as” for “as inhibition of”, “2” for “10”; assay type: functional, organism-based
Toxoplasma gondii [40] = experiment: Anti-bradyzoite activity against Toxoplasma gondii ESG reporter stain infected in NHDF cells assessed as viable cells recovery causing host cell lysis at 2 uM measured after 15 days by optical microscopic analysis; assay type: functional, organism-based; conditions: time 15.0 day
Toxoplasma gondii [41] = experiment: Induction of stage conversion in Toxoplasma gondii ESG reporter strain at 4 uM; assay type: functional, organism-based
Toxoplasma gondii [42] = experiment: Anti-bradyzoite activity against Toxoplasma gondii ESG reporter strain infected in NHDF cells assessed as induced cyst formation at 2 uM measured after 5 days under alkaline condition by TEM analysis; assay type: functional, organism-based; conditions: time 5.0 day
Toxoplasma gondii [43] = experiment: as §1, with “as” for “as inhibition of”, “4” for “10”; assay type: functional, organism-based
Toxoplasma gondii [44] = experiment: Anti-bradyzoite activity against Toxoplasma gondii ESG reporter strain infected in NHDF cells assessed as increase in BAG-positive vacuole number at 2 uM pretreated with PYR for 3 days followed by compound treatment and further incubated for 4 days; assay type: functional, organism-based; conditions: time 4.0 day
Toxoplasma gondii [45] = experiment: Induction of stage conversion in Toxoplasma gondii ESG reporter strain at 2 uM; assay type: functional, organism-based

SMILES | Activity (Toxoplasma gondii [8]) | pEC50 (Toxoplasma gondii [9]) | selectivity ratio [10] | CC50 at 96 h [11] [µM] | Activity (Toxoplasma gondii [12]) | pEC50 (Toxoplasma gondii [15]) | Activity (Toxoplasma gondii [16]) | Activity (Toxoplasma gondii [24]) | other results
O=C1C(O)=C([C@H]2CC[C@H](c3ccc(Cl)cc3)CC2)C(=O)c2ccccc21 | – | – | – | – | – | – | – | – | Activity (Toxoplasma gondii [1]): Active; Activity (Toxoplasma gondii [2]): Active; Activity (Toxoplasma gondii [3]): Active; Activity (Toxoplasma gondii [4]): Active; Activity (Toxoplasma gondii [5]): Active; Activity (Toxoplasma gondii [6]): Active; Activity (Toxoplasma gondii [7]): Active
Fc1ccc(Nc2ccc3ccc4cccnc4c3n2)cc1 | inactive | 6.51 | 96 | 26.9 | Active | 6.60 | – | – | Activity (Toxoplasma gondii [13]): Active; Activity (Toxoplasma gondii [14]): Active
COc1ccc(Nc2ccc3ccc4cccnc4c3n2)cc1 | inactive | 6.54 | 63 | 18.4 | Active | 6.51 | Active | – | Activity (Toxoplasma gondii [13]): Active; Activity (Toxoplasma gondii [17]): Active
c1ccc2c(Nc3ccc4ccc5cccnc5c4n3)cccc2c1 | – | 6.82 | 114 | 11.4 | – | 6.62 | – | Active | Activity (Toxoplasma gondii [18]): Active; Activity (Toxoplasma gondii [19]): Active; Activity (Toxoplasma gondii [20]): inactive; Activity (Toxoplasma gondii [21]): Active; Activity (Toxoplasma gondii [22]): Active; Activity (Toxoplasma gondii [23]): Active; Activity (Toxoplasma gondii [25]): Active; Activity (Toxoplasma gondii [26]): Active; Activity (Toxoplasma gondii [27]): Active; Activity (Toxoplasma gondii [28]): Active; Activity (Toxoplasma gondii [29]): Active; Activity (Toxoplasma gondii [30]): Active
N#Cc1ccc(Nc2ccc3ccc4cccnc4c3n2)cc1 | – | 5.78 | 21 | 31 | – | 5.97 | – | – | Activity (Toxoplasma gondii [2]): Active; Activity (Toxoplasma gondii [31]): 100%
N#Cc1cccc(Nc2ccc3ccc4cccnc4c3n2)c1 | – | 6.51 | 98 | 30.5 | – | 6.62 | – | Active | Activity (Toxoplasma gondii [2]): Active; Activity (Toxoplasma gondii [14]): Active; Activity (Toxoplasma gondii [32]): Active; Activity (Toxoplasma gondii [33]): Active
Fc1cccc(Nc2ccc3ccc4cccnc4c3n2)c1 | inactive | 6.48 | 75 | 24.9 | Active | 6.57 | Active | Active | Activity (Toxoplasma gondii [34]): Active; Activity (Toxoplasma gondii [35]): Active; Activity (Toxoplasma gondii [36]): Active; Activity (Toxoplasma gondii [30]): Active
COc1cccc(Nc2ccc3ccc4cccnc4c3n2)c1 | inactive | 6.47 | 111 | 37.7 | Active | 6.60 | Active | – | Activity (Toxoplasma gondii [34]): Active; Activity (Toxoplasma gondii [13]): Active
c1ccc(Nc2ccc3ccc4cccnc4c3n2)cc1 | – | 6.17 | 73 | 34.6 | – | 6.28 | Active | – | –
Clc1cccc(Nc2ccc3ccc4cccnc4c3n2)c1 | inactive | 6.24 | 42 | 24.9 | Active | 6.44 | Active | Active | Activity (Toxoplasma gondii [34]): Active; Activity (Toxoplasma gondii [17]): Active; Activity (Toxoplasma gondii [35]): Active; Activity (Toxoplasma gondii [36]): Active; Activity (Toxoplasma gondii [30]): Active
c1cnc2c(c1)ccc1cccnc12 [PHENANTHROLINE] | – | 5.64 | 31 | 70.2 | – | 5.70 | – | – | Activity (Toxoplasma gondii [37]): Active
CCc1nc(N)nc(N)c1-c1ccc(Cl)cc1 | – | – | – | – | – | – | – | – | Activity (Toxoplasma gondii [1]): Active; Activity (Toxoplasma gondii [38]): Active; Activity (Toxoplasma gondii [39]): Active; Activity (Toxoplasma gondii [40]): Active; Activity (Toxoplasma gondii [41]): Active; Activity (Toxoplasma gondii [42]): Active; Activity (Toxoplasma gondii [43]): Active; Activity (Toxoplasma gondii [6]): Active; Activity (Toxoplasma gondii [44]): Active; Activity (Toxoplasma gondii [37]): Active; Activity (Toxoplasma gondii [45]): Active
